Laboratory results published in patent US10448639B2, “Fungicidal pyrazoles” (FMC CORPORATION, priority 2009, dated 2019).

Experiments:
[1] = system: Puccinia recondita f. sp. tritici; experiment: Test H: wheat leaf rust, curative spray on inoculated wheat seedlings, visual disease rating
Septoria nodorum = experiment: Test F: Septoria glume blotch, preventive spray on wheat seedlings, visual disease rating
[2] = system: Puccinia recondita f. sp. tritici; experiment: Test I: wheat leaf rust, preventive spray on wheat seedlings, visual disease rating
Botrytis cinerea = experiment: Test B: tomato Botrytis, preventive spray on tomato seedlings, visual disease rating
Alternaria solani = experiment: Test C: tomato early blight, preventive spray on tomato seedlings, visual disease rating
[3] = system: Erysiphe graminis f sp. tritici; experiment: Test J: wheat powdery mildew, preventive spray on wheat seedlings, visual disease rating
Septoria tritici = experiment: Test G: wheat leaf blotch, preventive spray on wheat seedlings, visual disease rating
[4] = wheat leaf rust, curative spray, 100 = 100% disease control, 0 = no control
[5] = Septoria glume blotch on wheat, preventive spray, 100 = 100% disease control, 0 = no control
[6] = wheat leaf rust, preventive spray, 100 = 100% disease control, 0 = no control
[7] = tomato Botrytis, preventive spray, 100 = 100% disease control, 0 = no control
[8] = tomato early blight, preventive spray, 100 = 100% disease control, 0 = no control
[9] = wheat powdery mildew, preventive spray, 100 = 100% disease control, 0 = no control
[10] = wheat leaf blotch, preventive spray, 100 = 100% disease control, 0 = no control
[11] = wheat leaf rust, curative, 100 = 100% disease control, 0 = no control relative to controls
[12] = Septoria glume blotch, 100 = 100% disease control, 0 = no control relative to controls
[13] = wheat leaf rust, preventive, 100 = 100% disease control, 0 = no control relative to controls
[14] = tomato Botrytis, 100 = 100% disease control, 0 = no control relative to controls
[15] = tomato early blight, 100 = 100% disease control, 0 = no control relative to controls
[16] = wheat powdery mildew, 100 = 100% disease control, 0 = no control relative to controls
[17] = wheat leaf blotch, 100 = 100% disease control, 0 = no control relative to controls

SMILES	Test H rating (% disease control) [1, 4]	Test F rating (% disease control) (Septoria nodorum; [5])	Test I rating (% disease control) [2, 6]	Test B rating (% disease control) (Botrytis cinerea; [7])	Test C rating (% disease control) (Alternaria solani; [8])	Test J rating (% disease control) [3, 9]	Test G rating (% disease control) (Septoria tritici; [10])	Test H rating (% disease control) [1, 11]	Test F rating (% disease control) (Septoria nodorum; [12])	Test I rating (% disease control) [2, 13]	Test B rating (% disease control) (Botrytis cinerea; [14])	Test C rating (% disease control) (Alternaria solani; [15])	Test J rating (% disease control) [3, 16]	Test G rating (% disease control) (Septoria tritici; [17])	other results
COc1cc(F)c(-c2c(C)nn(C)c2Oc2c(F)cc(Cl)cc2F)c(F)c1 [Compound 58, 5-(4-Chloro-2,6-difluorophenoxy)-4-(2,6-difluoro-4-methoxyphenyl)-1,3-dimethyl-1H-pyrazole]	–	–	–	–	–	–	–	–	–	–	–	–	–	–	pest or weed control at 200 µg/mL ([1]; 144 h, read-out: Test H rating (% disease control)): 82%; pest or weed control at 200 µg/mL (Septoria nodorum; Parastagonospora nodorum, in Triticum aestivum, 192 h, read-out: Test F rating (% disease control)): 89%; pest or weed control at 200 µg/mL ([2]; 192 h, read-out: Test I rating (% disease control)): 100%; pest or weed control at 200 µg/mL (Botrytis cinerea; Botrytis cinerea, in Solanum lycopersicum, 120 h, read-out: Test B rating (% disease control)): 98%; pest or weed control at 200 µg/mL (Alternaria solani; Alternaria solani, in Solanum lycopersicum, 168 h, read-out: Test C rating (% disease control)): 100%; pest or weed control at 200 µg/mL ([3]; Blumeria graminis, in Triticum aestivum, 192 h, read-out: Test J rating (% disease control)): 100%; pest or weed control at 200 µg/mL (Septoria tritici; Zymoseptoria tritici, in Triticum aestivum, 504 h, read-out: Test G rating (% disease control)): 98%
Cc1nn(C)c(Oc2ccc([N+](=O)[O-])c(F)c2)c1-c1c(F)cc(F)cc1F [compound 131]	0%	0%	86%	99%	0%	94%	98%	–	–	–	–	–	–	–	–
COc1ccc(-c2c(C)nn(C)c2Oc2c(F)cc(C#N)cc2F)c(Cl)c1 [compound 155]	–	–	–	–	–	–	–	92%	100%	100%	100%	99%	99%	100%	–
COc1cc(F)c(-c2c(C)nn(C)c2Nc2c(Cl)cc(OC)cc2OC)c(F)c1 [compound 59]	0%	0%	68%	94%	0%	0%	88%	–	–	–	–	–	–	–	–
Cc1nn(C)c(Nc2cc(F)ccc2F)c1-c1ccc(F)cc1F [compound 226]	–	–	–	–	–	–	–	28%	0%	91%	99%	0%	100%	96%	–
Cc1nn(C)c(Nc2cc(Cl)ccc2Cl)c1-c1c(F)cc(C#N)cc1F [compound 146]	0%	0%	97%	99%	0%	56%	99%	–	–	–	–	–	–	–	–
Cc1nn(C)c(Nc2ccc(C#N)cc2F)c1-c1c(F)cccc1F [compound 196]	–	–	–	–	–	–	–	9%	73%	98%	99%	94%	98%	100%	–
Cc1nn(C)c(Nc2ccc(Cl)cc2)c1-c1c(F)cc(C#N)cc1F [compound 110]	0%	98%	97%	99%	66%	94%	99%	–	–	–	–	–	–	–	–
Cc1nn(C)c(Oc2ncc(Cl)cc2Cl)c1-c1c(F)cc(F)cc1F [compound 64]	0%	0%	95%	97%	80%	98%	100%	–	–	–	–	–	–	–	–
COc1ccc(-c2c(C)nn(C)c2Nc2c(F)cc(F)cc2F)c(Cl)c1 [compound 104]	99%	97%	99%	100%	99%	100%	99%	–	–	–	–	–	–	–	–
Cc1nn(C)c(Nc2cc(C#N)ccc2Cl)c1-c1ccc(F)cc1F [compound 291]	–	–	–	–	–	–	–	0%	0%	85%	99%	0%	43%	98%	–
COc1cc(F)c(-c2c(C)nn(C)c2Oc2ccc(Cl)c(C)c2)c(F)c1 [compound 185]	–	–	–	–	–	–	–	0%	0%	74%	0%	0%	98%	100%	–
COc1cc(F)c(Nc2c(-c3c(F)cc(C#N)cc3F)c(C)nn2C)c(F)c1 [compound 134]	0%	0%	41%	99%	0%	0%	99%	–	–	–	–	–	–	–	–
COc1ccc(Nc2c(-c3ccc(F)cc3F)c(C)nn2C)c(Cl)c1 [compound 242]	–	–	–	–	–	–	–	0%	0%	91%	99%	37%	100%	100%	–
Cc1nn(C)c(Nc2ncc(Cl)cc2Cl)c1-c1cccc(Cl)c1Cl [compound 303]	–	–	–	–	–	–	–	–	–	–	–	–	–	–	Test H disease control rating ([1]; wheat leaf rust, sprayed after inoculation, 100 = 100% disease control, 0 = no disease control relative to controls): 0%; Test F disease control rating (Septoria nodorum; Septoria glume blotch on wheat, 100 = 100% disease control, 0 = no disease control relative to controls): 0%; Test I disease control rating ([2]; wheat leaf rust, sprayed the day before inoculation, 100 = 100% disease control, 0 = no disease control relative to controls): 92%; Test B disease control rating (Botrytis cinerea; tomato Botrytis, 100 = 100% disease control, 0 = no disease control relative to controls): 99%; Test C disease control rating (Alternaria solani; tomato early blight, 100 = 100% disease control, 0 = no disease control relative to controls): 0%; Test J disease control rating ([3]; wheat powdery mildew, sprayed the day before inoculation, 100 = 100% disease control, 0 = no disease control relative to controls): 71%; Test G disease control rating (Septoria tritici; wheat leaf blotch, sprayed the day before inoculation, 100 = 100% disease control, 0 = no disease control relative to controls): 98%
COc1cccc(Nc2c(-c3c(F)cccc3F)c(C)nn2C)c1Cl [compound 289]	–	–	–	–	–	–	–	0%	0%	96%	100%	0%	97%	99%	–
Cc1nn(C)c(Nc2c(F)cc(F)cc2F)c1-c1ccccc1C(F)(F)F [compound 239]	–	–	–	–	–	–	–	0%	0%	68%	99%	95%	100%	67%	–
COc1cc(F)c(-c2c(C)nn(C)c2Nc2ncc(Cl)cc2Cl)c(F)c1 [compound 102]	0%	98%	100%	100%	100%	98%	99%	–	–	–	–	–	–	–	–
Cc1nn(C)c(Oc2cc(C#N)c(C#N)cc2Cl)c1-c1c(F)cc(F)cc1F [compound 163]	–	–	–	–	–	–	–	0%	0%	88%	0%	9%	0%	83%	–
Cc1nn(C)c(Oc2cc(F)cc(F)c2F)c1-c1c(F)cc(F)cc1F [compound 167]	–	–	–	–	–	–	–	0%	0%	0%	75%	0%	0%	0%	–
COc1cc(F)c(-c2c(C)nn(C)c2Nc2ncc(F)cc2F)c(F)c1 [compound 128]	66%	97%	100%	100%	100%	100%	99%	–	–	–	–	–	–	–	–
